From ChEMBL document CHEMBL1201862, “PubChem BioAssay data set” (2004) come the findings set out here.

Test systems include 786-0; Hs-578T; MDA-MB-435; NCI-H522; TK-10; T47D; BT-549; Malme-3M; NCI-H23; RPMI-8226; SK-MEL-28; CAKI-1; HT-29; OVCAR-3; COLO 205; DU-145; HCT-116; HOP-92; SNB-19.
Experiment in all cases: NCI tumour cell line growth inhibition, 48 h

Each structure is given as a SMILES string.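 Cultured in 96-well plates, cells were exposed to test compound for 48 hours across five concentrations. At the GI50, growth is halved.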 Calls of active or inactive are those of the source. Cut-off read from the data, not from the text of the source: active = GI50 up to about 1.1 µM and inactive = higher. Square brackets hold non-standard residues; d marks the D form. Peptide text beside a SMILES is read from it. * marks the point of attachment. X26 = COC1=CC(=O)N(C(=O)[C@@H](O*)C(C)C)[C@H]1Cc1ccccc1; NMeV = CN[C@H](C(=O)O)C(C)C; Hexanoyl = CCCCCC(=O)*

For the compound `CCCCCC(=O)N[C@H](C(=O)N[C@H](C(=O)N(C)[C@H](C(=O)N1CCC[C@H]1C(=O)N1CCC[C@H]1C(=O)O[C@H](C(=O)N1C(=O)C=C(OC)[C@@H]1Cc1ccccc1)C(C)C)C(C)C)C(C)C)C(C)C` (Hexanoyl-VV[NMeV]PP-X26), the GI50 in the test on 786-0 is 57.9 µM (inactive); with Hs-578T, 68.2 µM (inactive); with MDA-MB-435, 36.2 µM (inactive); with NCI-H522, > 100 µM (inactive); in the test with TK-10, > 100 µM (inactive); with T47D it was > 100 µM (inactive). For the same compound, the GI50 in the test with BT-549 was 59.8 µM (inactive); in the test on Malme-3M, > 100 µM (inactive); in the test on NCI-H23, > 100 µM (inactive); in the test on RPMI-8226 it was 84.1 µM (inactive); in the test with SK-MEL-28, > 100 µM (inactive); in the test on CAKI-1, > 100 µM (inactive). For the same compound, the GI50 in the test with HT-29 was > 100 µM (inactive); in the test with OVCAR-3, > 100 µM (inactive); with COLO 205, > 100 µM (inactive); in the test with DU-145 it was > 100 µM (inactive); in the test on HCT-116 it was 48.2 µM (inactive); with HOP-92 it was 36.2 µM (inactive).

For the compound `OCC1OC(n2cnc3c(Cl)nc(Nc4ccc(Cl)c(Cl)c4)nc32)CC1O` (centres undefined), the GI50 in the test on 786-0 is 8.73 µM (inactive); in the test with Hs-578T it was 13.2 µM (inactive); in the test with SNB-19 it was 20.5 µM (inactive); in the test with MDA-MB-435, 9.38 µM (inactive); in the test with NCI-H522 it was 9.29 µM (inactive); with TK-10, 8.36 µM (inactive). The GI50 in the test on T47D was 13.3 µM (inactive); in the test on BT-549, 9.98 µM (inactive); with Malme-3M it was 12 µM (inactive); in the test on NCI-H23, 10.2 µM (inactive); with RPMI-8226, 8.13 µM (inactive); in the test on CAKI-1, 16.3 µM (inactive). Further, the GI50 with HT-29 is 7.71 µM (inactive); in the test on OVCAR-3, 12.2 µM (inactive); in the test with COLO 205 it was 11 µM (inactive); in the test on DU-145 it was 11.6 µM (inactive); in the test with HCT-116, 11 µM (inactive); in the test on HOP-92, 8.18 µM (inactive).

On to `CC(=O)OCC1OC(NC(=S)Nn2c(-c3ccccc3)nc3ccccc3c2=O)C(OC(C)=O)C(OC(C)=O)C1OC(C)=O` (centres undefined), for which the GI50 in the test with 786-0 is > 100 µM (inactive); with Hs-578T, 78.7 µM (inactive); in the test with SNB-19, > 100 µM (inactive); in the test with MDA-MB-435 it was > 100 µM (inactive); in the test with NCI-H522, 45.5 µM (inactive); in the test on T47D, 19.4 µM (inactive). In addition, the GI50 in the test on BT-549 is > 100 µM (inactive); in the test with Malme-3M, 52.8 µM (inactive); with NCI-H23 it was > 100 µM (inactive); with RPMI-8226 it was > 100 µM (inactive); in the test on SK-MEL-28, 90.2 µM (inactive); in the test on CAKI-1 it was > 100 µM (inactive). The GI50 in the test with HT-29 was > 100 µM (inactive); in the test on OVCAR-3, 30.8 µM (inactive); with COLO 205, > 100 µM (inactive); with DU-145 it was > 100 µM (inactive); in the test on HCT-116 it was > 100 µM (inactive); in the test with HOP-92, 38.4 µM (inactive).

For the compound `COC(CC1(CCNc2ccccc2)C(=O)N(COCC[Si](C)(C)C)c2ccccc21)OC` (centres undefined), the GI50 in the test on 786-0 is 6.25 µM (inactive); in the test with Hs-578T it was 18 µM (inactive); in the test on SNB-19, 15.5 µM (inactive); with MDA-MB-435 it was 13.3 µM (inactive); in the test on NCI-H522 it was 11.9 µM (inactive); with TK-10, 14.8 µM (inactive). Also, the GI50 in the test with T47D was 20.3 µM (inactive); in the test on BT-549 it was 17.2 µM (inactive); with NCI-H23, 16.5 µM (inactive); in the test on RPMI-8226, 7.23 µM (inactive); in the test on SK-MEL-28 it was 6.98 µM (inactive); with CAKI-1, 26.4 µM (inactive). For the same compound, the GI50 in the test with HT-29 was 16.4 µM (inactive); in the test on OVCAR-3 it was 15.6 µM (inactive); in the test on COLO 205, 2.69 µM (inactive); with DU-145, 23.6 µM (inactive); with HCT-116, 13.9 µM (inactive); in the test with HOP-92 it was 13.8 µM (inactive).

Take `O=[N+]([O-])c1cc2no[n+]([O-])c2cc1N1CCCCC1`: the GI50 with 786-0 was 1.29 µM (inactive); in the test on Hs-578T, 25.1 µM (inactive); in the test with SNB-19 it was 16.3 µM (inactive); with MDA-MB-435, 2.87 µM (inactive); in the test with NCI-H522, 1.48 µM (inactive); with TK-10, 3.33 µM (inactive). The GI50 is 1.39 µM (inactive) with T47D; 9.29 µM (inactive) in the test with BT-549; 12.5 µM (inactive) in the test with NCI-H23; 1.28 µM (inactive) with RPMI-8226; 7.28 µM (inactive) in the test on SK-MEL-28; 3.35 µM (inactive) in the test on CAKI-1. Further, the GI50 in the test with HT-29 is 1.76 µM (inactive); in the test with OVCAR-3, 1.92 µM (inactive); in the test with COLO 205 it was 5.37 µM (inactive); in the test on DU-145, 2.45 µM (inactive); in the test on HCT-116, 1.93 µM (inactive); in the test on HOP-92, 2.4 µM (inactive).

Regarding `N#Cc1ccc(/N=N/N2CCCC2)cc1`, the GI50 with 786-0 is > 100 µM (inactive); in the test on Hs-578T, > 100 µM (inactive); in the test with SNB-19, > 100 µM (inactive); in the test on MDA-MB-435, > 100 µM (inactive); with NCI-H522, > 100 µM (inactive); in the test on TK-10, 95.9 µM (inactive). Besides, the GI50 with T47D is > 100 µM (inactive); with BT-549, > 100 µM (inactive); in the test on NCI-H23 it was 95.1 µM (inactive); in the test with RPMI-8226 it was 40.2 µM (inactive); with CAKI-1, > 100 µM (inactive); with OVCAR-3, > 100 µM (inactive). Also, the GI50 was > 100 µM (inactive) in the test on COLO 205, 20.8 µM (inactive) with DU-145, > 100 µM (inactive) in the test on HCT-116 and > 100 µM (inactive) in the test on HOP-92.

For the compound `Cc1cc(C)cc(Nc2cc(O)nc(O)n2)c1`, the GI50 is > 100 µM (inactive) in the test on 786-0; > 100 µM (inactive) in the test with Hs-578T; > 100 µM (inactive) in the test with SNB-19; > 100 µM (inactive) with MDA-MB-435; > 100 µM (inactive) in the test with TK-10; 0.0649 µM (active) with T47D. For the same compound, the GI50 in the test with BT-549, in the test on Malme-3M, in the test with NCI-H23, with RPMI-8226, in the test with SK-MEL-28 and with HT-29 was > 100 µM (inactive) each time. The GI50 with OVCAR-3, with COLO 205, in the test with DU-145, with HCT-116 and in the test on HOP-92 was > 100 µM (inactive) in each case.

In the case of `C=C1C(=O)OC2C1C(OC(=O)/C(C)=C/C)CC1(C)C(=O)CCC(=C)C21` (centres undefined), the GI50 in the test on 786-0 is 4.02 µM (inactive); with Hs-578T, 27.8 µM (inactive); in the test on MDA-MB-435, 8.2 µM (inactive); in the test with NCI-H522, 2.54 µM (inactive); in the test with TK-10, 4.89 µM (inactive); in the test on T47D, 13.1 µM (inactive). Besides, the GI50 in the test on BT-549 was 6.27 µM (inactive); in the test on Malme-3M, 5.85 µM (inactive); with NCI-H23, 12.8 µM (inactive); in the test on RPMI-8226, 1.95 µM (inactive); with SK-MEL-28, 3.47 µM (inactive); in the test with CAKI-1, 4.79 µM (inactive). For the same compound, the GI50 was 4.88 µM (inactive) in the test on HT-29; 6.92 µM (inactive) with OVCAR-3; 5.33 µM (inactive) in the test on COLO 205; 8.07 µM (inactive) in the test on DU-145; 4.03 µM (inactive) in the test on HCT-116; 1.62 µM (inactive) in the test with HOP-92.

As for `Nc1ccccc1N/C=C\C(=O)C(Cl)(Cl)Cl`, the GI50 in the test on 786-0 is 15 µM (inactive); in the test on Hs-578T, 48.8 µM (inactive); in the test with SNB-19 it was 34.1 µM (inactive); in the test with MDA-MB-435, 14.8 µM (inactive); with NCI-H522 it was 20.2 µM (inactive); in the test on TK-10, 30.6 µM (inactive). Also, the GI50 in the test on T47D was 18.6 µM (inactive); with BT-549, 22.9 µM (inactive); in the test with Malme-3M it was 33.2 µM (inactive); with NCI-H23, 22.7 µM (inactive); with RPMI-8226 it was 14.3 µM (inactive); in the test with SK-MEL-28 it was 17.5 µM (inactive). For the same compound, the GI50 in the test on CAKI-1 was 19.6 µM (inactive); in the test on HT-29, 18.9 µM (inactive); with COLO 205, 22.8 µM (inactive); in the test with DU-145, 26.7 µM (inactive); in the test with HCT-116, 16.2 µM (inactive); with HOP-92, 19 µM (inactive).

For the compound `O=C(NCCCCN(CCCNC(=O)C(F)(F)F)Cc1ccccc1)C(F)(F)F`, the GI50 in the test on 786-0, in the test with Hs-578T, in the test with SNB-19, in the test with MDA-MB-435, with NCI-H522 and in the test with TK-10 was > 100 µM (inactive) in each case. Moreover, the GI50 with T47D, with BT-549, in the test with NCI-H23, in the test on RPMI-8226, in the test with SK-MEL-28 and with HT-29 was > 100 µM (inactive) each time. Moreover, the GI50 in the test with OVCAR-3, in the test on COLO 205, in the test on DU-145, in the test with HCT-116 and in the test on HOP-92 was > 100 µM (inactive) each time.

Take `COc1cccc2c(=O)oc(-c3ccccc3C)nc12`: the GI50 with 786-0 was 44.8 µM (inactive); with Hs-578T, 43.5 µM (inactive); in the test on MDA-MB-435, 33.6 µM (inactive); with NCI-H522, 46.9 µM (inactive); in the test with TK-10, > 100 µM (inactive); in the test on T47D, > 100 µM (inactive). Also, the GI50 in the test on BT-549 was 21.5 µM (inactive); in the test on Malme-3M it was 42.2 µM (inactive); in the test on NCI-H23 it was 61.4 µM (inactive); in the test with RPMI-8226, 38.2 µM (inactive); in the test with SK-MEL-28 it was 29.3 µM (inactive); in the test with CAKI-1, 35.2 µM (inactive). Further, the GI50 was 39 µM (inactive) in the test with HT-29; 29 µM (inactive) with OVCAR-3; 39.8 µM (inactive) in the test on COLO 205; 61 µM (inactive) with DU-145; 29.5 µM (inactive) in the test with HCT-116; > 100 µM (inactive) in the test with HOP-92.
